According to PubChem BioAssay (NCI):
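Growth conditions: 96-well plates. Treatment: test compound, 48 hours, 5 concentrations. Analysis: linear interpolation between bracketing concentrations; unreached endpoints set to highest concentration. The concentration for full growth arrest is given as TGI.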

Columns and labels:
Test in all cases: NCI-60 cell line screen, 48 h
TK-10 renal = tested on: TK-10 renal
HS 578T breast = tested on: HS 578T breast
SF-295 CNS = tested on: SF-295 CNS
SNB-75 CNS = tested on: SNB-75 CNS
HL-60(TB) leukemia = tested on: HL-60(TB) leukemia
NCI-H23 lung = tested on: NCI-H23 lung
SF-268 CNS = tested on: SF-268 CNS
T-47D breast = tested on: T-47D breast
SK-MEL-2 melanoma = tested on: SK-MEL-2 melanoma
RXF 393 renal = tested on: RXF 393 renal
786-0 renal = tested on: 786-0 renal
SF-539 CNS = tested on: SF-539 CNS
HT29 colon = tested on: HT29 colon
MDA-N = tested on: MDA-N
KM12 colon = tested on: KM12 colon
SR leukemia = tested on: SR leukemia
RPMI-8226 leukemia = tested on: RPMI-8226 leukemia
IGROV1 ovarian = tested on: IGROV1 ovarian
OVCAR-4 ovarian = tested on: OVCAR-4 ovarian
MALME-3M melanoma = tested on: MALME-3M melanoma

Structure (SMILES) | TGI (TK-10 renal) [µM] | TGI (HS 578T breast) [µM] | TGI (SF-295 CNS) [µM] | TGI (SNB-75 CNS) [µM] | TGI (HL-60(TB) leukemia) [µM] | TGI (NCI-H23 lung) [µM] | TGI (SF-268 CNS) [µM] | TGI (T-47D breast) [µM] | TGI (SK-MEL-2 melanoma) [µM] | TGI (RXF 393 renal) [µM] | TGI (786-0 renal) [µM] | TGI (SF-539 CNS) [µM] | TGI (HT29 colon) [µM] | TGI (MDA-N) [µM] | TGI (KM12 colon) [µM] | TGI (SR leukemia) [µM] | TGI (RPMI-8226 leukemia) [µM] | TGI (IGROV1 ovarian) [µM] | TGI (OVCAR-4 ovarian) [µM] | TGI (MALME-3M melanoma) [µM]
C=C1C(=O)C=C2C=C3C(=O)C(C)(C)C[C@]3(O)C12C (stereo partly drawn) | 3.42 | 43.8 | 45.7 | 31.4 | 2.54 | 12.9 | 28.2 | 5.98 | 33.2 | 3.33 | 3.41 | > 57.5 | 11.1 | 13.5 | 32.1 | 2.28 | 3.2 | 36.5 | 12.7 | 3.65
O=S(=O)(Nc1ccccc1S(=O)(=O)c1ccccc1)c1ccccc1 | > 100 | > 100 | > 100 | > 100 | > 100 | > 100 | > 100 | > 100 | > 100 | > 100 | > 100 | > 100 | > 100 | > 100 | > 100 | > 100 | > 100 | > 100 | > 100 | > 100
C[C@H](CCc1nc(C#N)c(N)o1)[C@H]1CC[C@H]2[C@@H]3[C@@H](O)CC4C[C@@H](O)CC[C@]4(C)[C@H]3C[C@@H](O)[C@]12C (stereo partly drawn) | > 68.1 | 62.6 | 53.2 | 54 | > 26.9 | 58.5 | > 91.5 | 85.6 | 45.1 | 35.9 | > 86.7 | 59.5 | 45.6 | 77.8 | 53.8 | > 61.8 | 28.6 | 33.2 | > 87.6 | 29.3
CCCCc1ccc(Nc2nc(Cl)c3[nH]cnc3n2)cc1 | 50.6 | 50.5 | 34.6 | 85.4 | > 100 | 33.9 | 59.9 | 37.2 | 31 | 31.6 | 29.1 | 32.7 | 36.3 | 43.1 | 32 | > 100 | > 100 | 71.8 | > 100 | 42.2
COC(=O)C(Cc1ccccc1)NS(=O)(=O)c1ccc(-c2c3nc(c(-c4ccc(S(=O)(=O)NC(Cc5ccccc5)C(=O)OC)cc4)c4ccc([nH]4)c(-c4ccc(S(=O)(=O)NC(Cc5ccccc5)C(=O)OC)cc4)c4nc(c(-c5ccc(S(=O)(=O)NC(Cc6ccccc6)C(=O)OC)cc5)c5ccc2[nH]5)C=C4)C=C3)cc1 (stereo not drawn) | > 100 | 62 | > 100 | 31.5 | > 100 | > 100 | > 100 | > 100 | > 100 | > 100 | > 100 | > 100 | > 100 | > 100 | > 100 | > 100 | > 100 | > 100 | > 100 | > 100
Cc1ccc(S(=O)(=O)C2=c3ncccc3=C3C(=O)c4ccccc4C(=O)C32)cc1 (stereo not drawn) | > 71.3 | 81.8 | > 100 | > 100 | > 100 | > 100 | > 90.3 | > 100 | > 100 | > 31.6 | 50.3 | 46.1 | > 100 | > 100 | > 76.6 | > 100 | > 100 | > 62.2 | 64.4 | > 100
O=[N+]([O-])C(=C1Nc2ccccc2N1)C(Cl)=C(Cl)Cl | > 100 | > 100 | > 100 | 12.4 | > 100 | > 100 | > 100 | 77.7 | > 100 | > 100 | > 100 | > 100 | > 100 | > 100 | > 100 | > 100 | > 100 | > 100 | > 100 | > 100
C=CCSc1nn(CC=C)cc2ncnc1-2 | > 100 | > 100 | > 100 | > 100 | > 100 | > 100 | > 100 | > 100 | > 100 | > 100 | > 100 | > 100 | > 100 | > 100 | > 100 | > 100 | > 100 | > 100 |  | 
CCOC(=O)Cn1nc2ccc(Nc3nc4ccccc4nc3C(=O)OCC)cc2n1 | > 100 | > 100 | > 100 | 37.1 | > 100 | > 100 | > 100 | > 100 | > 100 | 58.2 | > 100 | 52.8 | > 100 | > 100 | > 100 | > 100 | > 100 | > 100 | > 100 | > 100
COc1ccc(OC)c(C2CCc3cnc4nc(N)nc(N)c4c3C2)c1 (stereo not drawn) | > 100 | > 100 | > 100 | 50.1 | > 100 | > 100 | > 100 | > 100 | > 100 | 83.3 | > 100 |  | > 100 | > 100 | > 100 | > 100 | > 100 | > 100 | > 100 | > 100
CCC(=S)N(C)O | > 95.3 | > 100 | > 100 | > 95.4 | 13.6 | > 100 | > 100 | > 100 | 86.6 | > 100 | > 81.1 | 84.1 | 24.1 | > 100 | > 93.1 | 24.1 | 21.8 | > 37 | > 100 | > 100
COc1cc(CNC(=O)CCCCCCCC/C=C/Br)ccc1O | > 10 | > 10 | > 10 | > 10 | > 10 | > 10 | > 10 | > 10 | > 10 | > 10 | > 10 | > 10 | > 10 | > 10 | > 10 | > 10 | > 10 | > 10 | > 10 | > 10
CC(C)C1OCC(CO)CO1 (stereo not drawn) | > 100 | > 100 | > 100 | > 100 | > 100 | > 100 | > 100 | > 100 | > 100 | > 100 | > 100 | > 100 | > 100 | > 100 | > 100 | > 100 | > 100 |  | > 100 | > 100
C=CCC1(O)c2cccc(O)c2C(=O)c2c(O)cccc21 | > 100 | 63.1 | > 100 | 75.2 | 47.5 | 56.9 | > 100 | 78.3 | 51.2 | 53.4 | > 100 | > 100 | 67.9 | 45 | > 100 | 44.7 | > 100 | > 100 | > 100 | 
CCCCNc1nc(SC)nc2nc[nH]c12 | > 100 | 21.9 | > 100 | > 100 | > 100 | > 100 | > 100 | > 100 | > 100 | > 100 | > 100 | > 100 | > 100 | > 100 | > 100 | > 100 | > 100 | > 100 | > 100 | > 100
Cc1ccc(C2SC(N)=Nc3c2c(C)nn3C(=O)c2ccncc2)cc1 (stereo not drawn) | > 10 | > 10 | > 10 | > 10 | > 10 | > 10 | > 10 | > 10 | > 10 | > 10 | > 10 | > 10 | > 10 | > 10 | > 10 | > 10 | > 10 | > 10 | > 10 | > 10
COC(=O)c1ccccc1CC1Cc2cc3c(cc2C1)CCC3 | > 100 | > 100 | > 100 | > 100 | 23.4 | > 100 | > 100 | > 100 | 43.9 | 63.6 | > 100 | > 100 | > 100 | > 100 | 71.1 | 29.2 | 40.1 | > 100 | > 100 | 52
OC[C@H]1CC(c2nn[nH]n2)[C@H](O)[C@@H]1O (stereo partly drawn) | > 100 | > 100 | > 100 | > 100 | > 100 | > 100 | > 100 | > 100 |  | > 100 | > 100 | > 100 | > 100 | > 100 | > 100 | > 100 | > 100 | > 100 | > 100 | > 100
Cc1cccc(C)c1NC(=S)/N=C/C1=C(O)c2ccccc2C1=O | > 81.2 | > 100 | > 100 | 51.4 | > 100 | 59.2 | > 100 | > 100 | > 83.3 | > 100 | > 100 | > 59.9 | > 79.2 | > 95.5 | > 100 | 8.19 | 31 | > 79.4 | > 65.4 | 
